These are literature values, as cited in patent US11633460B2, “Injectable solution at pH 7 comprising at least one basal insulin wherein the pI is comprised from 5.8 to 8.5 and a co-polyamino acid bearing carboxylate charges and hydrophobic radicals” (ADOCIA, priority 2017, dated 2023).

The conditions of the data set: patients, background statement.

In the case of insulin glargine, the “Period over which the hypoglycemic effect is quasi-constant” value is 24 h.
